We go through 22 compounds from patent publication US20230257372A1 (CHONG KUN DANG PHARMACEUTICAL CORP., priority 2020, published 2023).

One experiment concerns the target T1, human recombinant HDAC6 (Homo sapiens, UniProt Q9UBN7).
T1 construct: purchased Calbiochem Inc. 382180
T1 sequence (Q9UBN7 1-1215): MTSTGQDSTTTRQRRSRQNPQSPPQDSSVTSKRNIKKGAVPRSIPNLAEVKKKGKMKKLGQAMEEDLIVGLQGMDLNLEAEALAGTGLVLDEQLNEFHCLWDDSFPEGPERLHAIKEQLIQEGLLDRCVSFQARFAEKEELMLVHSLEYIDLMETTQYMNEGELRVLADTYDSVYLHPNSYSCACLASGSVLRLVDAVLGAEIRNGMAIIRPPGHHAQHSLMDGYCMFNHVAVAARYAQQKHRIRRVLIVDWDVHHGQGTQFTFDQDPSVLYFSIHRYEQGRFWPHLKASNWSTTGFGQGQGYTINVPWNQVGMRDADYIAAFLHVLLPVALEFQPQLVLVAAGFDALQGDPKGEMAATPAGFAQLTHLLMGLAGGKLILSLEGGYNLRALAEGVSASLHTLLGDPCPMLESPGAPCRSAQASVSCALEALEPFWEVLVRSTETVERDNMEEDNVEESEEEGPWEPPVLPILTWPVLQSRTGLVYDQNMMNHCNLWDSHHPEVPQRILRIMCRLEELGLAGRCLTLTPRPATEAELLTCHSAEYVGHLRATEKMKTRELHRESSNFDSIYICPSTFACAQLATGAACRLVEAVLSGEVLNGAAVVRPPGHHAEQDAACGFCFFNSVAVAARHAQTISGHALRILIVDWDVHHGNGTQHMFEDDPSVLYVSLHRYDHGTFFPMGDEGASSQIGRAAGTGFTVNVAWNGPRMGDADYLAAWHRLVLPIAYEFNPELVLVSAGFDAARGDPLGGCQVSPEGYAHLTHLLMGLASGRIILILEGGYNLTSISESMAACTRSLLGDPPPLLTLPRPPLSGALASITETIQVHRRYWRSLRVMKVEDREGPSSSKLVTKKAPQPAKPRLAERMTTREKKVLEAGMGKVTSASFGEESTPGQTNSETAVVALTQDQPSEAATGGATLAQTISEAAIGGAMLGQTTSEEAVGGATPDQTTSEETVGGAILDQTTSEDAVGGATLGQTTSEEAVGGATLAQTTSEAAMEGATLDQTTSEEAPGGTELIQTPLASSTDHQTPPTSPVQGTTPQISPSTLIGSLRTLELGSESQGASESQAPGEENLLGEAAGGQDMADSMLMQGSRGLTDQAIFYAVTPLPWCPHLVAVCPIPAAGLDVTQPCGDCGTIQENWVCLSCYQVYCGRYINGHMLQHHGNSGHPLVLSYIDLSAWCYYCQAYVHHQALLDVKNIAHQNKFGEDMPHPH
The experiment can be described thus: HDAC6 enzyme activity inhibition (HDAC Fluorimetric Drug Discovery Kit). Type of experiment: biochemical. On the procedure: (§1) An experiment was conducted to identify the selectivity of the compound represented by formula I of the present invention to HDAC6 through an experiment on HDAC1 and HDAC6 enzyme activity inhibition.
(§2) A 5-fold dilution of the compound was divided into a 96-well plate, after which […] of the enzyme and 10 μM of the substrate were inserted into each well and subjected to reaction at 30° C. for 60 minutes, such that Fluor de Lys® Developer II (BML-KI176) was inserted thereinto and subjected to reaction for 30 minutes and finished.

For another experiment, the target named is T2, human recombinant HDAC1 (Homo sapiens, UniProt Q13547).
T2 construct: purchased Enzo Life Science, Inc. BML-SE456
T2 sequence (Q13547 whole entry): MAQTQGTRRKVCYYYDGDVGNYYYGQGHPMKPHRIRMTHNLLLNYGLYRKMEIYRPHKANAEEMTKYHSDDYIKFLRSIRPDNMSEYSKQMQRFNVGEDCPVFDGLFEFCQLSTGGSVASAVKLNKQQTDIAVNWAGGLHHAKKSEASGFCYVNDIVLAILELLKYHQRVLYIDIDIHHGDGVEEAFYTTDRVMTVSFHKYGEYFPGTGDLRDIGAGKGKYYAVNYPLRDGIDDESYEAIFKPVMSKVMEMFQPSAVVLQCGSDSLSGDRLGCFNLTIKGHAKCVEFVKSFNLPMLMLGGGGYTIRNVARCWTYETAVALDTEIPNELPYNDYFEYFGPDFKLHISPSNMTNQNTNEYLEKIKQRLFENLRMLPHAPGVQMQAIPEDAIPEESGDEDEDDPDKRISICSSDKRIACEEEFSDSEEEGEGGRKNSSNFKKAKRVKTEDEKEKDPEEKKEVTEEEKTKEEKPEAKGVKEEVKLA
The experiment in a line: HDAC1 enzyme activity inhibition (HDAC Fluorimetric Drug Discovery Kit). Particulars: read-out: HDAC1. It counts as biochemical. On the procedure:
as §1, §2

Where [1] appears, read: human recombinant HDAC6, IC50 calculated with GraphPad Prism.
The mark [2] stands for this setting: human recombinant HDAC1, IC50 calculated with GraphPad Prism.
Where [3] appears, read: human recombinant HDAC6, same protocol as HDAC1.
[4] abbreviates: human recombinant HDAC1, Fluor de Lys substrate, 30° C. 60 minutes.

The structures appear in SMILES notation. Where two headings read alike, the source gives them in different places.

Take `CN(C)CCN(C)C(=O)c1cccc(-c2cn(Cc3ccc(-c4nnc(C(F)F)o4)cn3)nn2)c1` [Compound 4449, 3-(1-((5-(5-(difluoromethyl)-1,3,4-oxadiazol-2-yl)pyridin-2-yl)methyl)-1H-1,2,3-triazol-4-yl)-N-(2-(dimethylamino)ethyl)-N-methylbenzamide]: on human recombinant HDAC6 (HDAC1 IC50 / HDAC6 IC50), the “HDAC6 selectivity (fold)” value was 3759 fold. The figures for the IC50 at human recombinant HDAC6 (setting [1]) and at human recombinant HDAC1 (setting [2]) were 0.0133 µM and > 50 µM, respectively.
For `Fc1cc(-c2nnc(C(F)F)o2)ccc1Cn1cc(-c2cccc(C(F)F)c2)nn1` [Compound 4488, 2-(difluoromethyl)-5-(4-((4-(3-(difluoromethyl)phenyl)-1H-1,2,3-triazol-1-yl)methyl)-3-fluorophenyl)-1,3,4-oxadiazole], the “HDAC6 selectivity (fold)” value on human recombinant HDAC6 (HDAC1 IC50 / HDAC6 IC50) is listed as 1059 fold. Moreover, the IC50 on human recombinant HDAC6 (setting [1]) is 0.0472 µM; on human recombinant HDAC1 (setting [2]) it was > 50 µM.
As for `CCN1CCN(Cc2cccc(-c3cn(Cc4ccc(-c5nnc(C(F)F)o5)cc4F)nn3)c2)CC1` [Compound 4407, 2-(difluoromethyl)-5-(4-((4-(3-((4-ethylpiperazin-1-yl)methyl)phenyl)-1H-1,2,3-triazol-1-yl)methyl)-3-fluorophenyl)-1,3,4-oxadiazole], the “HDAC6 selectivity (fold)” value on human recombinant HDAC6 (HDAC1 IC50 / HDAC6 IC50) is recorded as 1259 fold. In addition, the results for the IC50 at human recombinant HDAC6 (setting [1]) and on human recombinant HDAC1 (setting [2]) were 0.0397 µM and > 50 µM, respectively.
Take `FC(F)c1nnc(-c2ccc(Cn3cc(C4CCN(C5CC6(COC6)C5)CC4)nn3)nc2)o1` [Compound 3810, 2-(6-((4-(1-(2-oxaspiro[3.3]heptan-6-yl)piperidin-4-yl)-1H-1,2,3-triazol-1-yl)methyl)pyridin-3-yl)-5-(difluoromethyl)-1,3,4-oxadiazole]: the “HDAC6 selectivity (fold)” value on human recombinant HDAC6 (HDAC1 IC50 / HDAC6 IC50) is 178 fold. The IC50 was 0.28 µM on human recombinant HDAC6 (setting [1]) and > 50 µM on human recombinant HDAC1 (setting [2]).
`FC1CN(Cc2ccc(-c3cn(Cc4ccc(-c5nnc(C(F)F)o5)cn4)nn3)cc2)C1` [Compound 4559, 2-(difluoromethyl)-5-(6-((4-(4-((3-fluoroazetidin-1-yl)methyl)phenyl)-1H-1,2,3-triazol-1-yl)methyl)pyridin-3-yl)-1,3,4-oxadiazole]: on human recombinant HDAC6 (HDAC6 over HDAC1), the “HDAC6 selectivity (fold)” value was 2347 fold. In addition, the IC50 at human recombinant HDAC6 (setting [3]) is 0.0213 µM; at human recombinant HDAC1 (setting [4]), > 50 µM.
For `FC(F)c1nnc(-c2ccc(Cn3cc(-c4ccc5c(c4)CNC5)nn3)nc2)o1` [Compound 4539, 2-(difluoromethyl)-5-(6-((4-(isoindolin-5-yl)-1H-1,2,3-triazol-1-yl)methyl)pyridin-3-yl)-1,3,4-oxadiazole] the same measures were 776 fold, 0.0644 µM and > 50 µM.
As to `CN(C)Cc1cc(Cl)cc(-c2cn(Cc3ncc(-c4nnc(C(F)F)o4)cc3F)nn2)c1` [Compound 19090, 1-(3-chloro-5-(1-((5-(5-(difluoromethyl)-1,3,4-oxadiazol-2-yl)-3-fluoropyridin-2-yl)methyl)-1H-1,2,3-triazol-4-yl)phenyl)-N,N-dimethylmethanamine], the “HDAC6 selectivity (fold)” value at human recombinant HDAC6 (HDAC6 over HDAC1) turned out to be 728 fold. Also, the IC50 at human recombinant HDAC6 (setting [3]) is 0.0686 µM; at human recombinant HDAC1 (setting [4]) it was > 50 µM.
Take `CN(C)C(C)(C)C(=O)Nc1cccc(-c2cn(Cc3ccc(-c4nnc(C(F)F)o4)cc3F)nn2)c1` [Compound 4353]: on human recombinant HDAC6 (HDAC1 IC50 / HDAC6 IC50), the “HDAC6 selectivity (fold)” value is listed as 1201 fold. For the same compound, the IC50 at human recombinant HDAC6 (setting [1]) is 0.0416 µM; on human recombinant HDAC1 (setting [2]), > 50 µM.
On to `FC(F)c1nnc(-c2ccc(Cn3cc(-c4cccc(NC5CCOCC5)c4)nn3)cc2)o1` [Compound 4325, N-(3-(1-(4-(5-(difluoromethyl)-1,3,4-oxadiazol-2-yl)benzyl)-1H-1,2,3-triazol-4-yl)phenyl)tetrahydro-2H-pyran-4-amine], for which the “HDAC6 selectivity (fold)” value at human recombinant HDAC6 (HDAC1 IC50 / HDAC6 IC50) amounted to 830 fold. Moreover, the IC50 at human recombinant HDAC6 (setting [1]) is 0.0602 µM; on human recombinant HDAC1 (setting [2]), > 50 µM.
In the case of `FC(F)c1cccc(-c2cn(Cc3ccc(-c4nnc(C(F)F)o4)cc3)nn2)c1` [Compound 4487, 2-(difluoromethyl)-5-(4-((4-(3-(difluoromethyl)phenyl)-1H-1,2,3-triazol-1-yl)methyl)phenyl)-1,3,4-oxadiazole], on human recombinant HDAC6 (HDAC1 IC50 / HDAC6 IC50), the “HDAC6 selectivity (fold)” value was found to be 627 fold. Further, the IC50 is 0.0797 µM on human recombinant HDAC6 (setting [1]) and > 50 µM at human recombinant HDAC1 (setting [2]).
Take `Fc1cc(-c2nnc(C(F)F)o2)cnc1Cn1cc(-c2cccc(C3CCN(C4CN(C5CCC5)C4)CC3)c2)nn1` [Compound 18878]: the “HDAC6 selectivity (fold)” value at human recombinant HDAC6 (HDAC6 over HDAC1) turned out to be 429 fold. The IC50 at human recombinant HDAC6 (setting [3]) was 0.116 µM; at human recombinant HDAC1 (setting [4]), > 50 µM.
In the case of `CC(C)N1Cc2ccc(-c3cn(Cc4ccc(-c5nnc(C(F)F)o5)cc4F)nn3)cc2C1` [Compound 4517, 2-(difluoromethyl)-5-(3-fluoro-4-((4-(2-isopropylisoindolin-5-yl)-1H-1,2,3-triazol-1-yl)methyl)phenyl)-1,3,4-oxadiazole], the IC50 on human recombinant HDAC1 (setting [4]) was > 50 µM.
As for `FC(F)c1nnc(-c2ccc(Cn3cc(-c4ccc5[nH]ncc5c4)nn3)cc2)o1` [Compound 4344, 2-(4-((4-(1H-indazol-5-yl)-1H-1,2,3-triazol-1-yl)methyl)phenyl)-5-(difluoromethyl)-1,3,4-oxadiazole], the IC50 at human recombinant HDAC1 (setting [2]) is > 50 µM.
On the same count and under the same terms, in the case of `CCN1CCC(c2cccc(-c3cn(Cc4ccc(-c5nnc(C(F)F)o5)cn4)nn3)c2)CC1` [Compound 4011, 2-(difluoromethyl)-5-(6-((4-(3-(1-ethylpiperidin-4-yl)phenyl)-1H-1,2,3-triazol-1-yl)methyl)pyridin-3-yl)-1,3,4-oxadiazole] it was > 50 µM; in that of `FC(F)c1nnc(-c2ccc(Cn3cc(-c4cn[nH]c4)nn3)nc2)o1` [Compound 3985, 2-(6-((4-(1H-pyrazol-4-yl)-1H-1,2,3-triazol-1-yl)methyl)pyridin-3-yl)-5-(difluoromethyl)-1,3,4-oxadiazole], > 50 µM.
As for `CN1CCN(c2cc(-c3cn(Cc4ccc(-c5nnc(C(F)F)o5)cc4F)nn3)ccn2)CC1` [Compound 4633, 2-(difluoromethyl)-5-(3-fluoro-4-((4-(2-(4-methylpiperazin-1-yl)pyridin-4-yl)-1H-1,2,3-triazol-1-yl)methyl)phenyl)-1,3,4-oxadiazole], at human recombinant HDAC1 (setting [4]), the IC50 is > 50 µM.
Same read-out and setting: in the case of `Fc1cc(-c2nnc(C(F)F)o2)ccc1Cn1cc(-c2ccn3ccnc3c2)nn1` [Compound 17198, 2-(difluoromethyl)-5-(3-fluoro-4-((4-(imidazo[1,2-a]pyridin-7-yl)-1H-1,2,3-triazol-1-yl)methyl)phenyl)-1,3,4-oxadiazole] it was > 50 µM; in that of `CN(C)Cc1ccc(-c2cn(Cc3ccc(-c4nnc(C(F)F)o4)cc3F)nn2)cc1` [Compound 4522, 1-(4-(1-(4-(5-(difluoromethyl)-1,3,4-oxadiazol-2-yl)-2-fluorobenzyl)-1H-1,2,3-triazol-4-yl)phenyl)-N,N-dimethylmethanamine], > 50 µM.
For the compound `CN1CC(c2ccc(-c3cn(Cc4ccc(-c5nnc(C(F)F)o5)cc4F)nn3)cc2)C1` [Compound 17698], at human recombinant HDAC1 (setting [4]), the IC50 was > 50 µM.
On to `CN(C)Cc1ccc(-c2cn(Cc3ccc(-c4nnc(C(F)F)o4)cc3F)nn2)s1` [Compound 17914, 1-(5-(1-(4-(5-(difluoromethyl)-1,3,4-oxadiazol-2-yl)-2-fluorobenzyl)-1H-1,2,3-triazol-4-yl)thiophen-2-yl)-N,N-dimethylmethanamine], for which the IC50 at human recombinant HDAC1 (setting [4]) is > 50 µM.
Take `Fc1ccc(-c2cn(Cc3ccc(-c4nnc(C(F)F)o4)cc3)nn2)cc1F` [Compound 3661, 2-(difluoromethyl)-5-(4-((4-(3,4-difluorophenyl)-1H-1,2,3-triazol-1-yl)methyl)phenyl)-1,3,4-oxadiazole]: the IC50 on human recombinant HDAC1 (setting [2]) was > 50 µM.
On to `CC(C)(F)C(=O)Nc1cccc(-c2cn(Cc3ccc(-c4nnc(C(F)F)o4)cc3F)nn2)c1` [Compound 4334], for which, on human recombinant HDAC1 (setting [2]), the IC50 was > 50 µM.
